system: L1210; experiment: Inhibitory concentration to reduce the growth of L1210 cells by 50% after 70 hr.; format: functional, cell-based; conditions: Mus musculus, L1210, 70 h

Row | IC50 [µM] | SMILES
1 | 0.18 | CNc1ccc(Nc2c3ccccc3nc3ccccc23)cc1
2 | 0.25 | CCNc1ccc(Nc2c3ccccc3nc3ccccc23)cc1
3 | 0.0035 | O=S(=O)(Nc1ccc(Nc2c3ccccc3nc3ccccc23)cc1)c1ccccc1
4 | 0.25 | Oc1ccc(Nc2c3ccccc3nc3ccccc23)cc1
5 | 0.02 | O=C(Nc1ccc(Nc2c3ccccc3nc3ccccc23)cc1)c1ccccc1

More lines, now with the values behind:

Row | SMILES | IC50 [µM]
6 | CC(=O)Nc1ccc(Nc2c3ccccc3nc3ccccc23)cc1 | 0.1
7 | COC(=O)Nc1ccc(Nc2c3ccccc3nc3ccccc23)cc1 | 0.06
8 | Nc1ccc(Nc2c3ccccc3nc3ccccc23)cc1 | 0.35
9 | CN(C)c1ccc(Nc2c3ccccc3nc3ccccc23)cc1 | 0.6
10 | CS(=O)(=O)Nc1ccc(Nc2c3ccccc3nc3ccccc23)cc1 | 0.035
11 | COP(=O)(Nc1ccc(Nc2c3ccccc3nc3ccccc23)cc1)OC | 0.015

system: L1210; experiment: Dose of the drug (mol /kg) providing a 50% life extension in L1210 assays when given at qd 1-5 schedule.; format: functional, Mus musculus; conditions: not given

Row | SMILES | Log 1/D50
12 | COP(=O)(Nc1ccc(Nc2c3ccccc3nc3ccccc23)cc1)OC | 4.46

— ChEMBL document CHEMBL1123690, “Redox chemistry of the 9-anilinoacridine class of antitumor agents” (J Med Chem, 1987)
